Measurements: ChEMBL document CHEMBL1201862, “PubChem BioAssay data set” (2004)
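Method: 48-hour compound exposure of cells in 96-well plates, five concentrations, linear interpolation of endpoints. At the GI50, growth is halved.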 Active and inactive are the calls of the source. No stated cut-off is given here; in the data, active = GI50 up to about 1.1 µM and inactive = higher.

Key:
Experiment in all cases: inhibition of tumour cell growth, NCI panel, 48 h
MDA-N = test system: MDA-N
SNB-75 = test system: SNB-75
HT-29 = test system: HT-29
SF-295 = test system: SF-295
SK-MEL-5 = test system: SK-MEL-5
UACC-62 = test system: UACC-62
CAKI-1 = test system: CAKI-1
DU-145 = test system: DU-145
COLO 205 = test system: COLO 205
UACC-257 = test system: UACC-257
Hs-578T = test system: Hs-578T
RPMI-8226 = test system: RPMI-8226
SF-539 = test system: SF-539
HL-60 = test system: HL-60
SR = test system: SR
NCI-H522 = test system: NCI-H522
NCI-H23 = test system: NCI-H23
SK-MEL-28 = test system: SK-MEL-28
HCT-15 = test system: HCT-15
MCF7 = test system: MCF7
OVCAR-4 = test system: OVCAR-4
Malme-3M = test system: Malme-3M
MDA-MB-435 = test system: MDA-MB-435
SK-MEL-2 = test system: SK-MEL-2
SN12C = test system: SN12C
SNB-19 = test system: SNB-19
A549 = test system: A549
OVCAR-8 = test system: OVCAR-8
K562 = test system: K562
MDA-MB-231 = test system: MDA-MB-231
BT-549 = test system: BT-549
HOP-62 = test system: HOP-62
UO-31 = test system: UO-31
HCT-116 = test system: HCT-116
T47D = test system: T47D
IGROV-1 = test system: IGROV-1
NCI-H226 = test system: NCI-H226
HOP-92 = test system: HOP-92
U-251 = test system: U-251
OVCAR-5 = test system: OVCAR-5
OVCAR-3 = test system: OVCAR-3
SW-620 = test system: SW-620
RXF 393 = test system: RXF 393
TK-10 = test system: TK-10
NCI-H460 = test system: NCI-H460
HCC 2998 = test system: HCC 2998
A498 = test system: A498
CCRF-CEM = test system: CCRF-CEM
SF-268 = test system: SF-268
MOLT-4 = test system: MOLT-4
786-0 = test system: 786-0
PC-3 = test system: PC-3
ACHN = test system: ACHN
KM12 = test system: KM12
SK-OV-3 = test system: SK-OV-3
NCI/ADR-RES = test system: NCI/ADR-RES
LOX IMVI = test system: LOX IMVI
EKVX = test system: EKVX
M14 = test system: M14

With `CCOP(=O)(CCCC(O)CNc1nc(N)nc(Cl)c1/N=N/c1ccc(Cl)cc1)OCC` (stereo unspecified) the GI50 (MDA-N) was 5.82 µM (inactive), the GI50 (SNB-75) was 3.29 µM (inactive) and the GI50 (HT-29) was 9.73 µM (inactive). The GI50 (SF-295) was 7.46 µM (inactive), the GI50 (SK-MEL-5) was 4.66 µM (inactive) and the GI50 (UACC-62) was 5.13 µM (inactive). For the same compound, the GI50 (CAKI-1) was 3.02 µM (inactive), the GI50 (DU-145) was 6.14 µM (inactive) and the GI50 (COLO 205) was 6.64 µM (inactive). For the same compound, the GI50 (UACC-257) was 5.38 µM (inactive), the GI50 (Hs-578T) was 4.85 µM (inactive) and the GI50 (RPMI-8226) was 2.82 µM (inactive). The GI50 (SF-539) was 9.25 µM (inactive), the GI50 (HL-60) was 1.75 µM (inactive) and the GI50 (SR) was 2.64 µM (inactive). The GI50 (NCI-H522) was 5.69 µM (inactive), the GI50 (NCI-H23) was 12.1 µM (inactive) and the GI50 (SK-MEL-28) was 8.22 µM (inactive). The GI50 (HCT-15) was 6.28 µM, the GI50 (MCF7) was 11.9 µM (inactive) and the GI50 (OVCAR-4) was 4.45 µM (inactive). For the same compound, the GI50 (Malme-3M) was 7.64 µM (inactive), the GI50 (MDA-MB-435) was 5.85 µM (inactive) and the GI50 (SK-MEL-2) was 12.2 µM (inactive). For the same compound, the GI50 (SN12C) was 5.15 µM (inactive), the GI50 (SNB-19) was 10.6 µM (inactive) and the GI50 (A549) was 10.6 µM (inactive). The GI50 (OVCAR-8) was 8.47 µM (inactive), the GI50 (K562) was 4.63 µM (inactive) and the GI50 (MDA-MB-231) was 2.59 µM (inactive). The GI50 (BT-549) was 6.28 µM (inactive), the GI50 (HOP-62) was 9.89 µM (inactive) and the GI50 (UO-31) was 3.56 µM (inactive). For the same compound, the GI50 (HCT-116) was 8.28 µM (inactive), the GI50 (T47D) was 5.09 µM (inactive) and the GI50 (IGROV-1) was 11.9 µM (inactive). For the same compound, the GI50 (NCI-H226) was 7.05 µM (inactive), the GI50 (HOP-92) was 5.6 µM (inactive) and the GI50 (U-251) was 8.57 µM (inactive). The GI50 (OVCAR-5) was 10.9 µM (inactive), the GI50 (OVCAR-3) was 5.73 µM (inactive) and the GI50 (SW-620) was 12.3 µM (inactive). The GI50 (RXF 393) was 5.24 µM (inactive), the GI50 (TK-10) was 3.67 µM (inactive) and the GI50 (NCI-H460) was 11.1 µM (inactive). For the same compound, the GI50 (HCC 2998) was 15.4 µM (inactive), the GI50 (A498) was 6.7 µM (inactive) and the GI50 (CCRF-CEM) was 3.21 µM (inactive). For the same compound, the GI50 (SF-268) was 4.27 µM (inactive), the GI50 (MOLT-4) was 3.24 µM (inactive) and the GI50 (786-0) was 5.27 µM (inactive). The GI50 (PC-3) was 4.86 µM (inactive), the GI50 (ACHN) was 4.05 µM (inactive) and the GI50 (KM12) was 11.2 µM (inactive). The GI50 (SK-OV-3) was 3.19 µM (inactive), the GI50 (NCI/ADR-RES) was 10.4 µM (inactive) and the GI50 (LOX IMVI) was 3.75 µM (inactive). The GI50 (EKVX) was 3.63 µM (inactive).

In the case of `O=C(Cc1csc2[n+]1C(=O)/C(=C/c1ccc(Cl)cc1)S2)Nc1ccccc1`, the GI50 (MDA-N) is reported as 30.4 µM (inactive), the GI50 (SNB-75) is reported as 23.5 µM (inactive) and the GI50 (HT-29) is reported as 24.2 µM (inactive). For the same compound, the GI50 (SF-295) was 17.5 µM (inactive), the GI50 (SK-MEL-5) was 10.9 µM (inactive) and the GI50 (UACC-62) was 10 µM (inactive). The GI50 (CAKI-1) was 28.1 µM (inactive), the GI50 (DU-145) was 31.4 µM (inactive) and the GI50 (COLO 205) was 14.9 µM (inactive). The GI50 (UACC-257) was 19.2 µM (inactive), the GI50 (Hs-578T) was 27.7 µM (inactive) and the GI50 (RPMI-8226) was 23.4 µM (inactive). The GI50 (SF-539) was 27.8 µM (inactive), the GI50 (HL-60) was 20.2 µM (inactive) and the GI50 (SR) was 24.3 µM (inactive). The GI50 (NCI-H522) was 15.3 µM (inactive), the GI50 (NCI-H23) was 24.2 µM (inactive) and the GI50 (SK-MEL-28) was 30.4 µM (inactive). The GI50 (HCT-15) was 23.8 µM, the GI50 (MCF7) was 15.4 µM (inactive) and the GI50 (OVCAR-4) was 30.3 µM (inactive). The GI50 (Malme-3M) was 30.1 µM (inactive), the GI50 (MDA-MB-435) was 25.3 µM (inactive) and the GI50 (SK-MEL-2) was 17.9 µM (inactive). The GI50 (SN12C) was 32.1 µM (inactive), the GI50 (SNB-19) was 34.9 µM (inactive) and the GI50 (A549) was 24.1 µM (inactive). For the same compound, the GI50 (OVCAR-8) was 40.7 µM (inactive), the GI50 (K562) was 21.7 µM (inactive) and the GI50 (MDA-MB-231) was 14.8 µM (inactive). For the same compound, the GI50 (BT-549) was 22.5 µM (inactive), the GI50 (HOP-62) was 2.01 µM (inactive) and the GI50 (UO-31) was 21.9 µM (inactive). The GI50 (HCT-116) was 16.8 µM (inactive), the GI50 (T47D) was 16.4 µM (inactive) and the GI50 (IGROV-1) was 16.9 µM (inactive). For the same compound, the GI50 (NCI-H226) was 15.6 µM (inactive), the GI50 (HOP-92) was 26.6 µM (inactive) and the GI50 (U-251) was 16.2 µM (inactive). For the same compound, the GI50 (OVCAR-5) was 22.5 µM (inactive), the GI50 (OVCAR-3) was 12.8 µM (inactive) and the GI50 (SW-620) was 26.4 µM (inactive). The GI50 (RXF 393) was 18.3 µM (inactive), the GI50 (TK-10) was 31.6 µM (inactive) and the GI50 (NCI-H460) was 18.7 µM (inactive). For the same compound, the GI50 (HCC 2998) was 19.6 µM (inactive), the GI50 (A498) was 15.7 µM (inactive) and the GI50 (CCRF-CEM) was 23.8 µM (inactive). For the same compound, the GI50 (M14) was 28.1 µM (inactive), the GI50 (SF-268) was 21.5 µM (inactive) and the GI50 (786-0) was 25.1 µM (inactive). The GI50 (PC-3) was 16.4 µM (inactive), the GI50 (ACHN) was 15.4 µM (inactive) and the GI50 (KM12) was 22.5 µM (inactive). The GI50 (SK-OV-3) was 19.4 µM (inactive), the GI50 (NCI/ADR-RES) was 21.7 µM (inactive) and the GI50 (LOX IMVI) was 16.2 µM (inactive). For the same compound, the GI50 (EKVX) was 16.3 µM (inactive).
